{"source": "patent US12377087B2", "about": "“Compounds for the treatment of cancer” (UNIVERSITY OF LOUISVILLE RESEARCH FOUNDATION, INC., priority 2015, dated 2025)", "key": {"[1]": {"tested_on": "H460 cells", "assay": "F2,6BP measurements in H460 cells", "type": "cell-based, human", "description": "(§1) F2,6BP measurements: Cells or tissues were prepared as previously described and F2,6BP content measured using a coupled enzyme reaction following the method of Van Schaftingen et at (Van Schaftingen E et al. A kinetic study of pyrophosphate: fructose-6-phosphate phosphotransferase from potato tubers. Application to a microassay of fructose 2,6-bisphosphate. Eur J Biochem 1982 December; 129(1): 191-5) and normalized to total cellular protein measured by the bicinchoninic acid assay (BCA, Thermo Scientific). […] In order to measure F2,6BP, cells were harvested, washed with PBS, lysed in NaOH/Tris acetate by heating at 80° C. and lysates neutralized to pH 7.2. F2,6BP content was measured using a coupled enzyme reaction following the method of Van Schaftingen et al (Eur J Biochem. 1982; 129(1): 191-195). The F2,6BP concentration was normalized to total cellular protein measured by the bicinchoninic acid assay (BCA, Thermo Scientific) All data are expressed as the mean±SD of three experiments. Statistical significance was assessed by the two-sample t test (independent variable)."}, "[2]": {"tested_on": "H460 cells", "assay": "cell cycle analysis by flow cytometry in H460 cells", "type": "cell-based, human", "description": "Flow Cytometry: To measure apoptosis, cells were stained with annexin V and propidium iodide and examined as previously described. […] DMSO used as vehicle. For cell cycle experiments, cells were detached, washed with cold PBS and fixed in 70% ethanol (4° C. 30 minutes). The cells then were pelleted by centrifugation, resuspended in PBS containing PI and RNase A, incubated at 37° C. in the dark for 30 minutes and analyzed by flow cytometry (BD FACSCalibur). Data were analyzed using FlowJo software (TREE STAR Inc.). Results were calculated as the mean±SD of three experiments."}, "[3]": {"tested_on": "PFKFB4−/− lung fibroblasts", "assay": "cell counts of tamoxifen-inducible PFKFB4-/- lung fibroblasts", "type": "cell-based, mice", "conditions": "4HT-induced deletion, 10 μM 5MPN, 24 hours", "from_the_text": "Cell lines and cell culture: H460, H1299, H441, H522 and A549 non-small cell lung cancer (NSCLC), MDA-MB-231 (breast), LNCaP (prostatic) and HCT116 (colon) adenocarcinoma and Lewis lung carcinoma (LLC) cell lines were obtained from ATCC and used within 6 months of acquisition, PFKFB4^7 ear pinna Fibroblasts isolated from TamCre/loxP/PFKFB4^−/− mice were immortalized as described previously (Chesney J et al. Fructose-2,6-bisphosphate synthesis by 6-phosphofructo-2-kinase/fructose-2,6-bisphosphatase 4 (PFKFB4) is required for the glycolytic response to hypoxia and tumor growth. Oncotarget 2014 Aug. 30; 5(16):6670-86). Normal bronchial epithelial cells (NHBE) were obtained from Lonza and NHBE cells expressing telomerase, SV40 large T antigen and activated Ras (hT/LT/Ras) were a gift from Dr. B. J. Rollins, Dana Farber Cancer Institute. All cell lines were tested and found negative for mycoplasma (PCR Mycoplasma Detection Kit, ABM). […]\n(§2) Cell Viability: Cells were incubated in 20% trypan blue (Sigma) for 5 minutes. Cells excluding trypan blue were counted using a standard hemocytometer (Hausser Scientific) to determine total numbers of viable cells. Data are expressed as mean±SD of three experiments."}, "[4]": {"target": "PFKFB3 (Homo sapiens, UniProt Q16875)", "sequence (Q16875 whole entry, species assumed)": "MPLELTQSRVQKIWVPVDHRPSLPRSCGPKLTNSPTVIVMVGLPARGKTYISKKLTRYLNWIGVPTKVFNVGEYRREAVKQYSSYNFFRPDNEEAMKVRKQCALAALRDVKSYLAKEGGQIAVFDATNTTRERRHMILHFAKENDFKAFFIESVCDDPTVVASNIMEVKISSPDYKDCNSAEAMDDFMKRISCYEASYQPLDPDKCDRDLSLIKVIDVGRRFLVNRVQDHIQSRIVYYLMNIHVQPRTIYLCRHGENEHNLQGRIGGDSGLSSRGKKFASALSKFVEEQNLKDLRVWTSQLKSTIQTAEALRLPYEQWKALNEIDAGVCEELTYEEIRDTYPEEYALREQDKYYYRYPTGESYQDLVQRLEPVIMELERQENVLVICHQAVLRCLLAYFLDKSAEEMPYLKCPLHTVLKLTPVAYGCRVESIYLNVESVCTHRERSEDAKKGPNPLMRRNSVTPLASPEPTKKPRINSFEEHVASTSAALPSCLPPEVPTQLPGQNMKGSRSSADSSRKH", "assay": "kinase activity of PFKFB3", "type": "biochemical", "conditions": "10 μM"}, "[5]": {"tested_on": "PFK-1", "assay": "kinase activity of PFK-1", "type": "biochemical", "conditions": "10 μM"}, "[6]": {"assay": "two-week oral toxicity study", "type": "in vivo", "conditions": "C57BL/6 mice, 120 mg/kg PO for two weeks", "description": "Given the potential usefulness of oral administration in terms of cost and convenience, we elected to pursue this route in subsequent toxicity and efficacy pre-clinical studies. Initially, we dosed C57BL/6 mice with 120 mg/kg PO for two weeks and analyzed the effect on complete blood counts, electrolytes, hepatic and renal function, body mass and the gross and histological appearance of the brain, heart, lungs, liver, kidneys and spleen. […] Next, the effects of oral administration of 5MPN on intratumoral F2,6BP and glucose uptake by LLC xenografts was examined. […] It was confirmed that 5MPN caused a G1 arrest in LLC cells in vitro similar to H460 cells (FIG. 4G). The number of Ki67-positive cells was examined since Ki-67 expression correlates with later S and G2 phases of the cell cycle (Sasaki K et al. The cell cycle associated change of the Ki-67 reactive nuclear antigen expression. J Cell Physiol 1987 December; 133(3):579-84)."}, "[7]": {"tested_on": "LLC xenografts", "assay": "FDG uptake by micro-positron emission tomography in tumor-bearing mice", "type": "in vivo", "conditions": "120 mg/kg by gavage, once", "description": "At the end of the experiment, animals were euthanized, tumors removed and sections fixed in 10% formaldehyde for immunohistochemistry or snap-frozen in liquid nitrogen for analyses. Subsets of tumor-bearing mice (n=3) were injected i.p. with 2-[^18F]-fluoro-2-deoxyglucose (FDG, 150 μCi, 100 μl) and imaged by micro-positron emission tomography as previously described. Regions of interest in the tumors and cerebellum were quantified in quadruplicate and expressed as the mean±SD of the tumor:cerebellar FDG uptake ratio. Animal experiments were approved by the University of Louisville Institutional Animal Care and Use Committee."}, "[8]": {"target": "human recombinant PFKFB4 (Homo sapiens, UniProt Q16877)", "sequence (Q16877 whole entry)": "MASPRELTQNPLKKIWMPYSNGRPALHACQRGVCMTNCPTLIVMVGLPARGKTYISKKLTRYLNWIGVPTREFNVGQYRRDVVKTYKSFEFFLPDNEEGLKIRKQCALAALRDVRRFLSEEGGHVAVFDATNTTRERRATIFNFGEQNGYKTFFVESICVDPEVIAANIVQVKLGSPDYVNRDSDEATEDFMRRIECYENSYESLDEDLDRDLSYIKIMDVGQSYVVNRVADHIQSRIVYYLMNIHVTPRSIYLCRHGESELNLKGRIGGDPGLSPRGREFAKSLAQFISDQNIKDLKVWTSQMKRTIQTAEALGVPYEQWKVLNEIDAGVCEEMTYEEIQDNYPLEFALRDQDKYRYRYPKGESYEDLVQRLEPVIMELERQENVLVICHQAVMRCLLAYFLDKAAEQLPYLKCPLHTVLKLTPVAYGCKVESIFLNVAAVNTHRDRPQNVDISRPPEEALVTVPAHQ", "assay": "fructose-6-phosphate kinase activity of human recombinant PFKFB4 (in vitro kinase assay)", "type": "biochemical", "description": "Kinase assays: The fructose-6-phosphate kinase activity of human recombinant PFKFB4 in the presence of DMSO±indicated 5MPN concentrations was assayed as previously described. The activity of 5MPN against 97 kinases was examined using a commercially available active-site dependent competition binding assay core service (KINOMEscanEDGE) that quantifies the capacity of lest agents to compete with an immobilized, active-site directed ligand using a DNA-tagged kinase and immobilized ligand and compound. For example, enzyme inhibition was studies using a ADP-Glo assay. […] ADP is converted into ATP, which is converted into light by a luciferase."}, "[9]": {"tested_on": "HCT116", "assay": "viable cell count of HCT116 cells", "type": "cell-based", "conditions": "HCT116, 48 hours", "description": "as §2"}, "[10]": {"tested_on": "LLC xenografts", "assay": "intratumoral F2,6BP in LLC xenografts", "type": "in vivo, C57BL/6 mice", "conditions": "120 mg/kg by gavage daily, 10 days", "description": "as §1\nAt the end of the experiment, animals were euthanized, tumors removed and sections fixed in 10% formaldehyde for immunohistochemistry or snap-frozen in liquid nitrogen for analyses. […]"}, "[11]": {"conditions": "H460 transfected with PFKFB4, 10 μM 5MPN, 24 hours"}}, "data": [{"compound": "COc1cccc2c(NCCCCCO[N+](=O)[O-])ccnc12", "note": "[5MPN, 5-[(8-methoxyquinolin-4-yl)amino]pentyl nitrate]", "values": [{"measurement": "intracellular concentration of F2,6BP", "setting": "[1]; H460, 10 μM 5MPN, 6-72 hours", "value": "reduced"}, {"measurement": "reduction in F2,6BP with over-expression of PFKFB4", "setting": "[1]; [11]", "value": "reversed"}, {"measurement": "cell cycle distribution (G1, S, G2)", "setting": "[2]; H460, 10 μM 5MPN", "value": "marked G1 arrest"}, {"measurement": "G1 arrest with over-expression of PFKFB4", "setting": "[2]; [11]", "value": "reversed"}, {"measurement": "anti-proliferative effect with genomic deletion of Pfkfb4", "setting": "[3]", "value": "sensitized"}, {"measurement": "inhibition of PFKFB3 kinase activity", "setting": "[4]", "value": "no inhibition of kinase activity"}, {"measurement": "inhibition of PFK-1 kinase activity", "setting": "[5]", "value": "no inhibition of kinase activity"}, {"measurement": "toxicity: blood counts, electrolytes, hepatic and renal function, body mass, organ histology, behavioral or clinical changes", "setting": "[6]", "value": "no signs of toxicity"}, {"measurement": "2-[18F]-fluoro-2-deoxyglucose uptake, positron emission tomography", "setting": "[7]", "value": "marked reduction"}, {"measurement": "PFKFB4 activity (kinase activity of recombinant PFKFB4)", "setting": "[8]; 0, 0.1, 1 or 10 μM 5MPN, F6P 0-2000 μmol/L", "value": "significantly inhibited"}, {"measurement": "mode of inhibition, Lineweaver-Burk analyses", "setting": "[8]; F6P binding site", "value": "competitive inhibitor"}, {"measurement": "growth, viable cells", "setting": "[9]", "value": "dose-dependent reduction in growth"}, {"measurement": "intratumoral F2,6BP", "setting": "[10]", "value": "marked reduction"}]}]}
